From ChEMBL document CHEMBL1143219, “Proline bis-amides as potent dual orexin receptor antagonists” (Bioorg Med Chem Lett, 2008)

What was measured:
[1] = biological target: T1, Orexin/Hypocretin receptor type 1 (Homo sapiens, UniProt O43613); experiment: Displacement of [3H](S)-1-[2-(1-methyl-1H-benzoimidazol-2-ylsulfanyl)-acetyl]-pyrrolidine-2-carboxylic acid biphenyl-2-ylamide from human OX1R expressed in CHO cells; format: cell-based
T1 sequence (O43613 whole entry): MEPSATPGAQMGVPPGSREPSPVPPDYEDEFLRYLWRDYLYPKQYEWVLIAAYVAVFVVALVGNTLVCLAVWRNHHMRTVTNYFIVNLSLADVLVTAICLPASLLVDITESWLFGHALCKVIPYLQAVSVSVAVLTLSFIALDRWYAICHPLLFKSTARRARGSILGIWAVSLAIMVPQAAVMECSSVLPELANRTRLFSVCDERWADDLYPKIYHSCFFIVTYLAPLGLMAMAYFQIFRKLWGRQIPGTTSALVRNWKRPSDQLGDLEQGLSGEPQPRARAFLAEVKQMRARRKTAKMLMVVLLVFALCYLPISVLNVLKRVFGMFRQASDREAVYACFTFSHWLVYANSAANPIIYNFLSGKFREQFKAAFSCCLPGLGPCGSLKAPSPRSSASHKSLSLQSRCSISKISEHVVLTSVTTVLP

Orexin receptor type 2 = biological target: T2, Orexin receptor type 2 (Homo sapiens, UniProt O43614); experiment: Displacement of [3H](S)-N-(2-(1H-pyrrol-1-yl)phenyl)-1-(2-(1-methyl-1H-benzo[d]imidazol-2-ylthio)acetyl)pyrrolidine-2-carboxamide from human OX2R expressed in CHO cells; format: cell-based
T2 sequence (O43614 whole entry): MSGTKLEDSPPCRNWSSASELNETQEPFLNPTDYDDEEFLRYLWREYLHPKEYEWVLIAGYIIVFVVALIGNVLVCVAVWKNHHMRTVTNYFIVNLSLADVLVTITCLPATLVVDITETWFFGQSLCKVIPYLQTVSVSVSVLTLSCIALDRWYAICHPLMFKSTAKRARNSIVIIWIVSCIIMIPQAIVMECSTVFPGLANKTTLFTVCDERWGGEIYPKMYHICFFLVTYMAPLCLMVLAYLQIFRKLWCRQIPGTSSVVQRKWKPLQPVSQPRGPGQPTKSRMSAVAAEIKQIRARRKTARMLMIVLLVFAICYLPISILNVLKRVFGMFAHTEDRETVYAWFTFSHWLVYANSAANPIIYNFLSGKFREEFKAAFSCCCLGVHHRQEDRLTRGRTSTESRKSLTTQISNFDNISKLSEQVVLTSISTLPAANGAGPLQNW

[2] = Drug level in rat brain at 100 mg/kg, ip after 30 mins; format: ADME, organism-based; design: dose 100 mg/kg, route intraperitoneal; conditions: read-out: Drug uptake
[3] = Clearance in rat; format: ADME, organism-based; conditions: in vivo
[4] = Partition coefficient, log P of the compound; format: physicochemical; conditions: octanol/water
[5] = Drug level in rat cerebrospinal fluid at 100 mg/kg, ip after 30 mins; format: ADME, organism-based; design: dose 100 mg/kg, route intraperitoneal; conditions: read-out: Drug uptake
[6] = biological target: Synaptic vesicular amine transporter (Homo sapiens) (UniProt Q05940); experiment: Inhibition of monoamine transporter
[7] = Half life in rat; format: ADME, organism-based; conditions: in vivo
[8] = biological target: T3, Thromboxane A2 receptor (Homo sapiens) (UniProt P21731); experiment: Inhibition of thromboxane A2 receptor
T3 sequence (whole entry): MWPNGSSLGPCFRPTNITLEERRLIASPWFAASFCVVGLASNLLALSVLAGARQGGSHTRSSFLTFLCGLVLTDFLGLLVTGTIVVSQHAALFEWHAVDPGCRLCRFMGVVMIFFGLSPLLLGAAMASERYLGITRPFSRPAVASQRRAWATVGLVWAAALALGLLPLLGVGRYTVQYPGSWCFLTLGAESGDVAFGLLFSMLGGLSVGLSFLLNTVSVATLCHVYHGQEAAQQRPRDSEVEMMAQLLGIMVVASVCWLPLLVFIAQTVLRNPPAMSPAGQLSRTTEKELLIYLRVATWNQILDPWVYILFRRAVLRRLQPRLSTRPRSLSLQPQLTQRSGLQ

[9] = Oral bioavailability in rat; format: ADME, organism-based; conditions: in vivo
[10] = biological target: T4, Orexin receptor type 2 (Homo sapiens) (UniProt O43614); experiment: Antagonist activity at human OX2R expressed in CHOK1 cells assessed as effect on calcium mobilization; format: functional, cell-based; conditions: CHO-K1
T4 sequence (whole entry): T2 sequence (O43614 whole entry)

[11] = Drug level in rat plasma at 100 mg/kg, ip after 30 mins; format: ADME, organism-based; design: dose 100 mg/kg, route intraperitoneal
Rattus norvegicus = experiment: Inhibition of ADL-orexin-B-induced increase in locomotion activity in ip dosed rat; format: functional, organism-based
[12] = Inhibition of prostanoid receptor
[13] = biological target: T5, Orexin/Hypocretin receptor type 1 (Rattus norvegicus) (UniProt P56718); experiment: Antagonist activity at rat OX1R assessed as effect on calcium mobilization; format: functional
T5 sequence (whole entry): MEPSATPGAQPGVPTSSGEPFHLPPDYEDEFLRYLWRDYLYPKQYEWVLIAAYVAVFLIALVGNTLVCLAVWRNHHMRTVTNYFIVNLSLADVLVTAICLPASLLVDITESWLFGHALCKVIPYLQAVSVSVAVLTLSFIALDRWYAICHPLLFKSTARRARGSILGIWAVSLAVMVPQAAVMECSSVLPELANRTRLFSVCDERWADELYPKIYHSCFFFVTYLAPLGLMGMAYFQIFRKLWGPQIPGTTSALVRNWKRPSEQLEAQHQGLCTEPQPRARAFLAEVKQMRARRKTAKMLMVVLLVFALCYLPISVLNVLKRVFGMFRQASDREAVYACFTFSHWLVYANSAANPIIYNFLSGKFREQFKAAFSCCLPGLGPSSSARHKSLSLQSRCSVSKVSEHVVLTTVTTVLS

[14] = Inhibition of sodium channel at site 2
[15] = biological target: T6, Thyrotropin-releasing hormone receptor (Homo sapiens) (UniProt P34981); experiment: Inhibition of TRH receptor
T6 sequence (whole entry): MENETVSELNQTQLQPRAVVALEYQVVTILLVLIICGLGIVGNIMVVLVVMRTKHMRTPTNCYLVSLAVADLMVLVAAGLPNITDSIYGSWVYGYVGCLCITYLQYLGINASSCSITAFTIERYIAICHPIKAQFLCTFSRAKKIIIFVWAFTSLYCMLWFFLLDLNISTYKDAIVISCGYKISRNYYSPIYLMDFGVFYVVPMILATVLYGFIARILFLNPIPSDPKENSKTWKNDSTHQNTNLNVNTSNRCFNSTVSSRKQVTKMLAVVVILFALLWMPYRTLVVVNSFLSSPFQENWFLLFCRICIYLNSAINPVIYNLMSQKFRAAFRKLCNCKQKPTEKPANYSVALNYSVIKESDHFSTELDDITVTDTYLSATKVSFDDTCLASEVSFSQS

Synaptic vesicular amine transporter (Homo sapiens), sequence (Q05940 whole entry): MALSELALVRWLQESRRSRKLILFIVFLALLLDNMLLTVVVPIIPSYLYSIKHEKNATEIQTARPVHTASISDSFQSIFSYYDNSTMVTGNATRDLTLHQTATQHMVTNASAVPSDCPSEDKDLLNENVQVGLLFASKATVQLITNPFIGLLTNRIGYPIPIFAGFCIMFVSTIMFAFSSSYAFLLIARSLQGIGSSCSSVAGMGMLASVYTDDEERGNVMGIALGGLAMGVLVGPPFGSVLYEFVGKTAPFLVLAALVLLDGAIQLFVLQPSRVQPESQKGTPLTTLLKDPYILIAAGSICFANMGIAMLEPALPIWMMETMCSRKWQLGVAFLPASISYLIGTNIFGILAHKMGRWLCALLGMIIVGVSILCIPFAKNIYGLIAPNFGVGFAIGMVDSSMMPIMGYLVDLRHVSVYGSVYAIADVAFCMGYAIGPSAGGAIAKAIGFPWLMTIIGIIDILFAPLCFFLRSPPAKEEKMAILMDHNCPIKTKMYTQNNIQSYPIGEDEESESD

SMILES	Ki [1] [nM]	Ki (Orexin receptor type 2) [nM]	Activity [10] [nM]	other results
Cc1ccc2nc(SCC(=O)N3CCC[C@H]3C(=O)Nc3ccccc3-n3cccc3)[nH]c2c1	3	0.2	–	–
Cn1c(SCC(=O)N2CCC[C@H]2C(=O)Nc2ccccc2-c2ccccc2)nc2ccccc21	–	0.2	4	concentration at 0.5 h [2]: 2370 nM; clearance [3]: 3.7 mL/min/kg; logP [4]: 3.4; concentration at 0.5 h [5]: 43 nM; Activity [6]: < 10 µM; half-life [7]: 18 min; Activity [8]: < 10 µM; bioavailability [9]: 11%; concentration at 0.5 h [11]: 3500 nM; Activity (Rattus norvegicus): Dose-dependent effect; Activity [12]: < 10 µM
O=C(Nc1ccccc1-n1cccc1)[C@@H]1CCCN1C(=O)CSc1nc2ccccc2o1	120	8	28	–
O=C(Nc1ccccc1-c1ccccc1)[C@@H]1CCCN1C(=O)CCc1nc2ccccc2[nH]1	40	6	20	–
O=C(Nc1ccccc1-n1cccc1)[C@@H]1CCCN1C(=O)CSc1nc2ccccc2[nH]1	28	1	6	–
Cn1c(CCC(=O)N2CCC[C@H]2C(=O)Nc2ccccc2-n2cccc2)nc2ccccc21	49	2	3	–
O=C(Nc1ccccc1)[C@@H]1CCCN1C(=O)CSc1nc2ccccc2[nH]1	1400	560	4050	–
O=C(Nc1ccccc1-c1ccccc1F)[C@@H]1CCCN1C(=O)CCc1nc2ccccc2[nH]1	27	3	4	–
O=C(Nc1ccccc1-c1ccccc1)[C@@H]1CCCN1C(=O)CSc1nc2ccccc2[nH]1	10	0.6	7	–
O=C(Nc1ccccc1-n1cccc1)[C@@H]1CCCN1C(=O)CCc1nc2ccccc2[nH]1	130	11	36	Activity [13]: 520 nM
O=C(Nc1cccc(-c2ccccc2)c1)[C@@H]1CCCN1C(=O)CSc1nc2ccccc2[nH]1	500	280	2640	–
O=C(Nc1ccccc1Oc1ccccc1)[C@@H]1CCCN1C(=O)CSc1nc2ccccc2[nH]1	69	3	16	–
Cc1ccc2c(c1)nc(SCC(=O)N1CCC[C@H]1C(=O)Nc1ccccc1-n1cccc1)n2C	0.7	0.09	8	–
O=C(Nc1ccccc1-n1cccc1)[C@H]1CCCN1C(=O)CSc1nc2ccccc2[nH]1	2500	131	–	–
Cc1ccc2[nH]c(SCC(=O)N3CCC[C@H]3C(=O)Nc3ccccc3-n3cccc3)nc2c1	–	–	2	–
O=C(Nc1ccc(-c2ccccc2)cc1)[C@@H]1CCCN1C(=O)CSc1nc2ccccc2[nH]1	2300	11	143	–
Cn1c(SCC(=O)N2CCC[C@H]2C(=O)Nc2ccccc2-n2cccc2)nc2ccccc21	9	0.3	2	–
O=C(Nc1ccccc1-n1cccc1)[C@@H]1CCCN1C(=O)CSc1nc2ccccc2s1	39	2	11	–
COc1ccccc1-c1ccccc1NC(=O)[C@@H]1CCCN1C(=O)CCc1nc2ccccc2[nH]1	86	2	5	–
Cn1c(CCC(=O)N2CCC[C@H]2C(=O)Nc2ccccc2-c2ccccc2)nc2ccccc21	15	0.8	5	Activity [14]: < 10 µM; half-life [7]: 18 min; Activity [15]: < 10 µM
Cc1ccc2nc(SCC(=O)N3CCC[C@H]3C(=O)Nc3ccccc3-n3cccc3)n(C)c2c1	2	0.1	8	–
